From ChEMBL document CHEMBL4000183, “Phenylpropanoids from Juglans mandshurica exhibit cytotoxicities on liver cancer cell lines through apoptosis induction” (Bioorg Med Chem Lett, 2017)
pIC50: −log10 of the molar value. The source made the active and inactive calls. The calls are words filed in the database; no cut-off is given here.

What was measured:
[1] = tested on: Hep 3B2; assay: Cytotoxic activity against human Hep3B cells assessed as growth inhibition after 48 hrs by MTT assay; type: functional, cell-based; details: for pIC50: Homo sapiens, Hep3B, 48 h
[2] = tested on: HepG2; assay: Cytotoxic activity against human HepG2 cells assessed as growth inhibition after 48 hrs by MTT assay; type: functional, cell-based; details: for pIC50: Homo sapiens, HepG2, 48 h
[3] = tested on: HepG2; assay: Induction of apoptosis in human HepG2 cells assessed as chromatin condensation at 60 uM after 48 hrs by AO staining-based phase contrast microscopic analysis; type: functional, cell-based
[4] = tested on: HepG2; assay: Induction of apoptosis in human HepG2 cells assessed as increase in cleaved-caspase 9 level at 60 uM after 48 hrs by Western blot analysis; type: functional, cell-based
[5] = tested on: Hep 3B2; assay: Induction of apoptosis in human Hep3B cells assessed as decrease in PARP level at 50 uM after 48 hrs by Western blot analysis; type: functional, cell-based
[6] = tested on: HepG2; assay: Induction of apoptosis in human HepG2 cells assessed as nuclear fragmentation at 60 uM after 48 hrs by AO staining-based phase contrast microscopic analysis; type: functional, cell-based
[7] = tested on: Hep 3B2; assay: Cytotoxic activity against human Hep3B cells assessed as growth inhibition at 6.25 uM after 48 hrs by MTT assay; type: functional; details: read-out: GI
[8] = tested on: HepG2; assay: Cytotoxic activity against human HepG2 cells assessed as growth inhibition at 25 uM after 48 hrs by MTT assay; type: functional; details: HepG2, 48 h, read-out: GI
[9] = tested on: HepG2; assay: Induction of apoptosis in human HepG2 cells assessed as formation of apoptotic bodies at 60 uM after 48 hrs by AO staining-based phase contrast microscopic analysis; type: functional, cell-based
[10] = tested on: Hep 3B2; assay: Induction of apoptosis in human Hep3B cells assessed as increase in cleaved-caspase 7 level at 50 uM after 48 hrs by Western blot analysis; type: functional, cell-based
[11] = tested on: Hep 3B2; assay: Induction of apoptosis in human Hep3B cells assessed as decrease in pro-caspase 7 level at 50 uM after 48 hrs by Western blot analysis; type: functional, cell-based
[12] = tested on: HepG2; assay: Induction of apoptosis in human HepG2 cells assessed as increase in cleaved PARP level at 60 uM after 48 hrs by Western blot analysis; type: functional, cell-based
[13] = tested on: Hep 3B2; assay: Induction of apoptosis in human Hep3B cells assessed as chromatin condensation at 50 uM after 48 hrs by AO staining-based phase contrast microscopic analysis; type: functional, cell-based
[14] = tested on: Hep 3B2; assay: Induction of apoptosis in human Hep3B cells assessed as increase in Bax level at 50 uM after 48 hrs by Western blot analysis; type: functional, cell-based
[15] = tested on: Hep 3B2; assay: Cytotoxic activity against human Hep3B cells assessed as growth inhibition at 12.5 uM after 48 hrs by MTT assay; type: functional; details: read-out: GI
[16] = tested on: Hep 3B2; assay: Cytotoxic activity against human Hep3B cells assessed as growth inhibition at 100 uM after 48 hrs by MTT assay; type: functional; details: read-out: GI
[17] = tested on: Hep 3B2; assay: Induction of apoptosis in human Hep3B cells assessed as decrease in Bcl-2 level at 50 uM after 48 hrs by Western blot analysis; type: functional, cell-based
[18] = tested on: Hep 3B2; assay: Induction of apoptosis in human Hep3B cells assessed as cell shrinkage at 50 uM after 48 hrs by AO staining-based phase contrast microscopic analysis; type: functional
[19] = tested on: HepG2; assay: Cytotoxic activity against human HepG2 cells assessed as growth inhibition at 100 uM after 48 hrs by MTT assay; type: functional; details: HepG2, 48 h, read-out: GI
[20] = tested on: Hep 3B2; assay: Induction of apoptosis in human Hep3B cells assessed as decrease in pro-caspase 9 level at 50 uM after 48 hrs by Western blot analysis; type: functional, cell-based
[21] = tested on: Hep 3B2; assay: Induction of apoptosis in human Hep3B cells assessed as increase in cleaved-caspase 9 level at 50 uM after 48 hrs by Western blot analysis; type: functional, cell-based
[22] = tested on: HepG2; assay: Cytotoxic activity against human HepG2 cells assessed as growth inhibition at 50 uM after 48 hrs by MTT assay; type: functional; details: HepG2, 48 h, read-out: GI
[23] = tested on: HepG2; assay: Induction of apoptosis in human HepG2 cells assessed as increase in cleaved-caspase 7 level at 60 uM after 48 hrs by Western blot analysis; type: functional, cell-based
[24] = tested on: HepG2; assay: Cytotoxic activity against human HepG2 cells assessed as growth inhibition at 6.25 uM after 48 hrs by MTT assay; type: functional; details: HepG2, 48 h, read-out: GI
[25] = tested on: Hep 3B2; assay: Induction of apoptosis in human Hep3B cells assessed as nuclear fragmentation at 50 uM after 48 hrs by AO staining-based phase contrast microscopic analysis; type: functional, cell-based
[26] = tested on: Hep 3B2; assay: Induction of apoptosis in human Hep3B cells assessed as increase in cleaved PARP level at 50 uM after 48 hrs by Western blot analysis; type: functional, cell-based
[27] = tested on: HepG2; assay: Induction of apoptosis in human HepG2 cells assessed as decrease in pro-caspase 9 level at 60 uM after 48 hrs by Western blot analysis; type: functional, cell-based
[28] = tested on: HepG2; assay: Induction of apoptosis in human HepG2 cells assessed as decrease in PARP level at 60 uM after 48 hrs by Western blot analysis; type: functional, cell-based
[29] = tested on: HepG2; assay: Cytotoxic activity against human HepG2 cells assessed as growth inhibition at 12.5 uM after 48 hrs by MTT assay; type: functional; details: HepG2, 48 h, read-out: GI
[30] = tested on: HepG2; assay: Induction of apoptosis in human HepG2 cells assessed as increase in Bax level at 60 uM after 48 hrs by Western blot analysis; type: functional, cell-based
[31] = tested on: HepG2; assay: Induction of apoptosis in human HepG2 cells assessed as decrease in pro-caspase 7 level at 60 uM after 48 hrs by Western blot analysis; type: functional, cell-based
[32] = tested on: Hep 3B2; assay: Cytotoxic activity against human Hep3B cells assessed as growth inhibition at 50 uM after 48 hrs by MTT assay; type: functional; details: read-out: GI
[33] = tested on: HepG2; assay: Induction of apoptosis in human HepG2 cells assessed as decrease in Bcl-2 level at 60 uM after 48 hrs by Western blot analysis; type: functional, cell-based
[34] = tested on: Hep 3B2; assay: Cytotoxic activity against human Hep3B cells assessed as growth inhibition at 25 uM after 48 hrs by MTT assay; type: functional; details: read-out: GI
[35] = tested on: Hep 3B2; assay: Induction of apoptosis in human Hep3B cells assessed as increase in cleaved-caspase 7 level at 70 uM after 48 hrs by Western blot analysis; type: functional, cell-based
[36] = tested on: Hep 3B2; assay: Induction of apoptosis in human Hep3B cells assessed as increase in cleaved PARP level at 70 uM after 48 hrs by Western blot analysis; type: functional, cell-based
[37] = tested on: Hep 3B2; assay: Induction of apoptosis in human Hep3B cells assessed as cell shrinkage at 70 uM after 48 hrs by AO staining-based phase contrast microscopic analysis; type: functional
[38] = tested on: Hep 3B2; assay: Induction of apoptosis in human Hep3B cells assessed as decrease in Bcl-2 level at 70 uM after 48 hrs by Western blot analysis; type: functional, cell-based
[39] = tested on: Hep 3B2; assay: Induction of apoptosis in human Hep3B cells assessed as decrease in pro-caspase 9 level at 70 uM after 48 hrs by Western blot analysis; type: functional, cell-based
[40] = tested on: Hep 3B2; assay: Induction of apoptosis in human Hep3B cells assessed as increase in cleaved-caspase 9 level at 70 uM after 48 hrs by Western blot analysis; type: functional, cell-based
[41] = tested on: Hep 3B2; assay: Induction of apoptosis in human Hep3B cells assessed as chromatin condensation at 70 uM after 48 hrs by AO staining-based phase contrast microscopic analysis; type: functional, cell-based
[42] = tested on: Hep 3B2; assay: Induction of apoptosis in human Hep3B cells assessed as nuclear fragmentation at 70 uM after 48 hrs by AO staining-based phase contrast microscopic analysis; type: functional, cell-based
[43] = tested on: Hep 3B2; assay: Induction of apoptosis in human Hep3B cells assessed as decrease in PARP level at 70 uM after 48 hrs by Western blot analysis; type: functional, cell-based
[44] = tested on: Hep 3B2; assay: Induction of apoptosis in human Hep3B cells assessed as decrease in pro-caspase 7 level at 70 uM after 48 hrs by Western blot analysis; type: functional, cell-based
[45] = tested on: Hep 3B2; assay: Induction of apoptosis in human Hep3B cells assessed as increase in Bax level at 70 uM after 48 hrs by Western blot analysis; type: functional, cell-based

| SMILES | growth inhibition (GI) [1] [%] | growth inhibition (GI) [2] [%] | pIC50 [1] | Activity [3] | Activity [4] | Activity [6] | inhibition of growth at 6.25 µM [7] [%] | inhibition of growth at 25 µM [8] [%] | Activity [9] | Activity [12] | inhibition of growth at 12.5 µM [15] [%] | inhibition of growth at 100 µM [16] [%] | inhibition of growth at 100 µM [19] [%] | pIC50 [2] | inhibition of growth at 50 µM [22] [%] | Activity [23] | inhibition of growth at 6.25 µM [24] [%] | Activity [27] | Activity [28] | inhibition of growth at 12.5 µM [29] [%] | further results |
| --- | --- | --- | --- | --- | --- | --- | --- | --- | --- | --- | --- | --- | --- | --- | --- | --- | --- | --- | --- | --- | --- |
| CC(/C=C\Oc1ccc(/C=C/CO)cc1)CO (stereo not drawn) | -15.72 | 7.81 |  |  |  |  |  |  |  |  |  |  |  |  |  |  |  |  |  |  |  |
| C/C(=C\COc1ccc(/C=C/C=O)cc1)CO | 93.78 | 87.79 | 4.33 | Active | Active | Active | -4.83 | 7.01 | Active | Active | 9.1 | 91.5 | 69.2 | 4.20 | 52 | Active | -9.7 | Active | Active | 12.2 | Activity [5]: Active; Activity [10]: Active; Activity [11]: Active; Activity [13]: Active; Activity [14]: Active; Activity [17]: Active; Activity [18]: Active; Activity [20]: Active; Activity [21]: Active; Activity [25]: Active; Activity [26]: Active; Activity [30]: Active; Activity [31]: Active; inhibition of growth at 50 µM [32]: 77.7%; Activity [33]: Active; inhibition of growth at 25 µM [34]: 11.6% |
| COC(=O)/C=C/c1ccc(OCCC(C)CO)cc1 (stereo not drawn) | 14.7 | 39.48 |  |  |  |  |  |  |  |  |  |  |  |  |  |  |  |  |  |  |  |
| COC(=O)c1ccc(OCCC(C)CO)cc1 (stereo not drawn) | 19.85 | -11.27 |  |  |  |  |  |  |  |  |  |  |  |  |  |  |  |  |  |  |  |
| CC(CO)CCOc1ccc(/C=C/C=O)cc1 (stereo not drawn) | 95.08 | 83.9 | 4.16 | Active | Active | Active | -4.07 | 14.1 | Active | Active | -2.42 | 85.8 | 80 | 4.23 | 57 | Active | 6.6 | Active | Active | 0.24 | Activity [35]: Active; Activity [36]: Active; Activity [37]: Active; Activity [38]: Active; Activity [39]: Active; Activity [40]: Active; Activity [41]: Active; Activity [42]: Active; Activity [43]: Active; Activity [44]: Active; Activity [45]: Active; Activity [30]: Active; Activity [31]: Active; inhibition of growth at 50 µM [32]: 28.9%; Activity [33]: Active; inhibition of growth at 25 µM [34]: 0.48% |
